Measurements reported in patent publication EP0172632B1, “Benzopyrano[4,3,2-cd]indazole compounds, processes for their production and pharmaceutical compositions comprising the compounds” (WARNER-LAMBERT COMPANY, priority 1984, dated 1986).
Where a name gives a salt, the structure may show the parent alone.

What was measured:
[1] = test system: HCT-8 cells; assay: in vitro proliferating human colon adenocarcinoma (HCA) cell screen; format: cell-based; details: 60 to 65 hours with compound, 50% inhibition of growth, read-out: HCA-4 in vitro ID50
Protocol: One test protocol is the in vitro proliferating human colon adenocarcinoma (HCA) cell screen. In this test, HCT-8 cells (HCA cell line received from Yale University) are trypsinized using trypsin-EDTA. A single cell suspension is achieved by passing the cells through a 26 gauge needle with a 20 cc syringe. A cell suspension is prepared using RPMI 1640 + 10% FCS + 50 µg/ml gentamicin sulfate with a cell concentration of approximately 30,000 cells/ml. The cell suspension is dispensed in Linbro 24-well plates; 1 ml/well. The plates are incubated for approximately 48 hours at 37°C in a 5% CO2 atmosphere. At this time test compounds are added in the appropriate concentration. Five µl of the 200 µg/ml stock solution is added to each well in a primary test. Ten ul of the appropriate dilution is added to each well for the titration test. The plates are reincubated an additional 60 to 65 hours at 37°C in a 5% C02 atmosphere. The cells are lysed using a mix of cationic surfactant, glacial acetic acid, and sodium chloride. Two ml of the lysed cell suspension from each well is added to 8 ml of diluent. The number of nuclei is determined using a Coulter counter (ZBI model), and a percent growth for each drug concentration is calculated. From this, an IDso (molar concentration of compound that results in 50% inhibition of growth) is determined.

[2] = test system: L1210 cells; assay: L1210 in vitro cell growth inhibition; format: cell-based; details: Mus musculus, 72 h; L1210 murine leukemia cells, three days incubation, 50% inhibition of growth; read-out: L1210 in vitro ID50
Protocol: Another test protocol uses L1210 cells, a murine leukemia cell line, grown in RPMI 1640 supplemented with 5% fetal bovine serum and gentamicin ([…]). Drug dilutions are prepared in the appropriate solvent and 20 µl of each dilution are added to 24-well Linbro tissue culture plates, followed by the addition of 2.0 ml of cell suspension containing 3 x 10^4 cells per ml. Solvent and medium controls are included in each test. After incubation at 37°C for three days in 5% CO2, the contents of each well are removed and the cells counted in a ZBI Counter counter. Percent growth are calculated relative to the controls and the levels of drug activity are expressed as ID50 in moles per liter.

[3] = test system: Bacillus subtilis 04555; assay: in vitro antibacterial/antifungal (ABF) agar-disk diffusion assay; format: cell-based; details: read-out: ABF Zone Diameter (Conc. in mg/ml) B. Sub-tilis; for zone of inhibition at 500 µg/mL: Conc. .5 mg/ml
Protocol: (§1) Still another test protocol is the in vitro antibacterial/antifungal (ABF) test. Compounds are tested for antimicrobial activity in an agar-disk diffusion assay, a standard microbiological technique for testing antibiotics. After incubation of each culture with a test compound, a zone of inhibition is determined. The zone diameter (mm) of active compounds ranges from a minimum of 13.5 mm to as high as 60 mm, with a greater diameter reflecting higher activity. For convenience, values are reported for two gram-negative bacteria (Aerobacter aerogenes 0126 and Escherichia coli 04863), two gram-positive bacteria (Bacillus subtilis 04555 and Streptococcus faecalis 05045 utilizing AM-09 medium), and one mycelial fungus (Penicillium avellaneum M2988).

[4] = test system: Streptococcus faecalis 05045; assay: as above; format: cell-based; details: Enterococcus faecalis, AM-09 medium, read-out: ABF Zone Diameter (Conc. in mg/ml) S. Fae-calis; for zone of inhibition at 500 µg/mL: Conc. .5 mg/ml
Protocol: as §1

[5] = test system: Penicillium avellaneum M2988; assay: as above; format: cell-based; details: Hamigera avellanea, read-out: ABF Zone Diameter (Conc. in mg/ml) P. Avell-aneum; for zone of inhibition at 3000 µg/mL: Conc. 3 mg/ml
Protocol: as §1

[6] = test system: lymphocytic leukemia P388; assay: in vivo lymphocytic leukemia P388 test; details: Mus musculus, P388, ip, 120 h, mice, survival time treated/control, read-out: P388 in vivo T/C×100
Protocol: Another test protocol is the in vivo lymphocytic leukemia P388 test. The animals used are either male or female CD2F, mice. There are six or seven animals per test group. The tumor transplant is by intraperitoneal injection of dilute ascitic fluid containing cells of lymphocytic leukemia P388. The test compounds are administered intraperitoneally once daily for five consecutive days at various doses following tumor inoculation. The animals are weighed and survivors are recorded on a regular basis for 30 days. A compound is designated "toxic" if, at a given dose, all animals died prior to four days after the first injection of drug. A ratio of survival time for treated (T)/control (C) animals is calculated. A criterion for efficacy is a ratio T/C times 100 greater than or equal to 125. See Cancer Chemotherapy Reports, Part 3, 3, 1 (1972) for a comprehensive discussion of the protocol.

SMILES | IC50 [1] [µM] | IC50 [2] [µM] | zone of inhibition at 500 µg/mL [3] [mm] | zone of inhibition at 500 µg/mL [4] [mm] | zone of inhibition at 3000 µg/mL [5] [mm] | response vs control in vivo at 100 mg/kg ([6]; Dose 100 mg/kg intraperitoneally once daily for five days) [%] | response vs control in vivo at 200 mg/kg ([6]; Dose 200 mg/kg intraperitoneally once daily for five days) [%] | zone of inhibition at 100 µg/mL ([3]; Conc. .1 mg/ml) [mm] | zone of inhibition at 100 µg/mL ([5]; Conc. .1 mg/ml) [mm] | response vs control in vivo at 50 mg/kg ([6]; Dose 50 mg/kg intraperitoneally once daily for five days) [%] | zone of inhibition at 3000 µg/mL ([4]; Conc. 3 mg/ml) [mm] | response vs control in vivo at 12.5 mg/kg ([6]; Dose 12.5 mg/kg intraperitoneally once daily for five days) [%] | response vs control in vivo at 25 mg/kg ([6]; Dose 25 mg/kg intraperitoneally once daily for five days) [%]
CCN(CC)CCn1nc2c3c(c([N+](=O)[O-])ccc31)Oc1ccccc1-2 [Example 1, N,N-Diethyl-5-nitro-2H-[1] benzopyrano[4,3,2-cd]indazole-2-ethanamine] | 1 | 1.9 | 14 | 15 | 0 | 138 | 211 |  |  |  |  |  | 
O=[N+]([O-])c1ccc2c3c(nn2CCNCCO)-c2ccccc2Oc13 [Example 2, 2-[[2-(5-Nitro-2H-[1]benzopyrano[4,3,2-cd]-indazol-2-yl)ethyl]amino]ethanol, monohydrochloride] | 0.5 | 0.4 |  | 17 |  |  |  | 17 | 19 | 141 |  |  | 
CCN(CC)CCn1nc2c3c(c(NCCN)ccc31)Oc1ccccc1-2 [Example 4, N-[2-[2-(Diethylamino)ethyl]-2H-[1]benzopyrano[4,3,2-cd]indazol-5-yl]ethanediamine, trihydrobromide, dihydrate] | 0.16 | 0.08 | 14 |  | 0 |  |  |  |  |  | 16 | 174 | 216
